Reference: patent US11286281B2, “Homodetic cyclic peptides targeting alpha-4-beta-7 integrin” (priority 2017, dated 2022)
Numbered stars: 1 amine (or outer) side, 2 acyl side, 3 side chain; on linkers, the order of the positions; unused ones are H or OH. Square brackets hold non-standard residues; d marks the D form. Peptide text beside a SMILES is read from it. X1 = O=C(c1ccc(-c2ccc(N3CCNCC3)cc2)c(CN[*:1])c1)[*:2]

Target: T1, integrin α4β7 (Homo sapiens, UniProt P13612+P26010)
T1 construct: purchased R&D Systems 5397-A3-050
T1 sequence (P13612 34-970 limits assumed): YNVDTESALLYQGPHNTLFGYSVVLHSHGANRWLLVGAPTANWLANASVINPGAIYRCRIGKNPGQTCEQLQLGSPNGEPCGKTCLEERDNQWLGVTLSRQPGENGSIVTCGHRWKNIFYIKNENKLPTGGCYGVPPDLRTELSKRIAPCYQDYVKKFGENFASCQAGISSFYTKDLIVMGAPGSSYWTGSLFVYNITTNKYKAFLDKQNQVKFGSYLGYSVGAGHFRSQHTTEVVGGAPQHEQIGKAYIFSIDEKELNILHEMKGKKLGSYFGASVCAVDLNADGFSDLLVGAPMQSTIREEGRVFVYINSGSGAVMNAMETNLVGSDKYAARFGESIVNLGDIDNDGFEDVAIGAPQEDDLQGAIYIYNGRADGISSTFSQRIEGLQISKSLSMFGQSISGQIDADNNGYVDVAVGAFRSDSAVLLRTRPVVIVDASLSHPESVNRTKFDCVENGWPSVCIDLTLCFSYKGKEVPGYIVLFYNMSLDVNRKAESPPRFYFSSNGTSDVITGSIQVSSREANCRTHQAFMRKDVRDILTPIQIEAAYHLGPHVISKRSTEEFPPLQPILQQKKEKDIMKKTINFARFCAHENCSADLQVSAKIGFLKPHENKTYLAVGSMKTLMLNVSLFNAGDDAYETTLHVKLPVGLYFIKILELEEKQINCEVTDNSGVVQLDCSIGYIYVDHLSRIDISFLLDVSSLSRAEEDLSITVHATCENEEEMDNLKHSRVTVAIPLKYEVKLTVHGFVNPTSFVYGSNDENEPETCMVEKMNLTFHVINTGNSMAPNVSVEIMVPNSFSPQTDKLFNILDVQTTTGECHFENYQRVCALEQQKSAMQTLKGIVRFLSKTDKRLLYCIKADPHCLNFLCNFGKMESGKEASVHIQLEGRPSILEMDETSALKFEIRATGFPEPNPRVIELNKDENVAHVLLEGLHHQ
T1 sequence (P26010 20-723 limits assumed): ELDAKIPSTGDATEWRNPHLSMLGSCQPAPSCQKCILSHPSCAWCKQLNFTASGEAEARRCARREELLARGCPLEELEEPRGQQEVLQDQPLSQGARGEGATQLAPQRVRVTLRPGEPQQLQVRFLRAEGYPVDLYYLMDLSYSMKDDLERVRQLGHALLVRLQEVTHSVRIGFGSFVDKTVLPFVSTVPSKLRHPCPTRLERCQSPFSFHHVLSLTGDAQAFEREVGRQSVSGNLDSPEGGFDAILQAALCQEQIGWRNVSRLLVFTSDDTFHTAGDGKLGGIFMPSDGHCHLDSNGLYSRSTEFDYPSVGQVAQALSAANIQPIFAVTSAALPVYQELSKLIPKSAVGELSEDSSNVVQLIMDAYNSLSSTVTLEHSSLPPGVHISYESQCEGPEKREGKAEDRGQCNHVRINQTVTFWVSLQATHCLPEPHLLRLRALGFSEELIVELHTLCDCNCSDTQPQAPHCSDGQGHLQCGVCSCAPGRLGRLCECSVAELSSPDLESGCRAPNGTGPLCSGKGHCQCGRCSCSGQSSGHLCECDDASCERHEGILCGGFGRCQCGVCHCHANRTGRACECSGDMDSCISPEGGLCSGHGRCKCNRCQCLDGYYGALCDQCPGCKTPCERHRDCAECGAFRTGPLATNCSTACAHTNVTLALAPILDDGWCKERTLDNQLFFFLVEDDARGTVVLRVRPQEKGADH
Assay: Integrin α4β7-MAdCAM-1 ELISA competition assay
Assay type: binding
Conditions: values of the second run
Procedure: Integrin α4β7-MAdCAM-1 ELISA Competition Assay
A 96-well Microlon plate (Greiner, 655001) was coated with 100 μl per well of a solution of 1 μg/ml recombinant integrin α4β7 (R&D Systems, 5397-A3-050) in carbonate buffer (50 mM, pH 9.6). The plate was incubated at 4′C overnight. The solution was removed and 250 μl blocking buffer (50 mM Tris, 150 mM NaCl, 1 mM MnCl2, 1% BSA, 0.05% Tween) was added per well. The plate was then incubated for 1 hour at room temperature. The plate was washed three times with wash buffer (50 mM Tris, 100 mM NaCl, 1 mM MnCl2, 0.05% Tween). To each well, 50 μl of compound diluted in assay buffer was added by transfer from a compound serial dilution plate. 50 μl recombinant MAdCAM-Fc (R&D systems, 6056-MC-050) at a concentration of 0.1 μg/ml in assay buffer (50 mM Tris, 150 mM NaCl, 1 mM MnCl2, 0.1% BSA, 0.05% Tween) was added to each well. The plate was incubated at room temperature with shaking (300 rpm) for 2 hours to reach binding equilibrium. Then the plate was washed three times in wash buffer and 100 μl anti-human IgG Fc specific-HRP (Abcam, Ab97225) diluted at 1:2000 in assay buffer was added to each well. The plate was incubated at room temperature for 1 hour under agitation. […] The reaction was stopped after 2 minute-incubation by adding 50 μl of 1M H2SO4 and optical absorbance was read at 450 nm.

CC(C)C[C@@H]1NC(=O)c2ccc(-c3ccc(N4CCNCC4)cc3)c(c2)CNC(=O)[C@@H]2CCCN2C(=O)[C@H](C)NC(=O)[C@H]([C@@H](C)O)NC(=O)[C@H](CC(=O)O)NC1=O [Compound 8] (cyclo(P[X1]LDTA))
IC50: ~24 nM
